Measured values taken from PubChem BioAssay (NCI).
Several values for one entry are separate records, joined by “and”; a condition that tells them apart may be missing. Identical values can stand only once.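 Dose response: 5 concentrations. Exposure: 48 h. Format: 96-well plates. Endpoint: linear interpolation; highest concentration if not reached. GI50 marks 50% less growth. Definition used: TGI = concentration required for complete inhibition of growth.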

How the values were obtained:
Assay in all cases: growth of human tumour cells (NCI), 48 h
U251 CNS = system: U251 CNS
UO-31 renal = system: UO-31 renal
NCI/ADR-RES ovarian = system: NCI/ADR-RES ovarian
HCT-116 colon = system: HCT-116 colon
MDA-MB-231 breast = system: MDA-MB-231 breast
DMS 114 small cell lung = system: DMS 114 small cell lung
DMS 273 small cell lung = system: DMS 273 small cell lung
OVCAR-3 ovarian = system: OVCAR-3 ovarian
M14 melanoma = system: M14 melanoma
CCRF-CEM leukemia = system: CCRF-CEM leukemia
SK-OV-3 ovarian = system: SK-OV-3 ovarian

`CC[C@]1(O)C[C@H]2CN(CCc3c([nH]c4ccccc34)[C@@](C(=O)OC)(c3cc4c(cc3OC)N(C=O)[C@H]3[C@@](O)(C(=O)OC)[C@H](OC(C)=O)[C@]5(CC)C=CCN6CC[C@]43[C@@H]65)C2)C1` was tested, and the TGI (U251 CNS) was 1.66 µM and 2.53 µM and 16.6 µM, the GI50 (UO-31 renal) was 0.476 µM and the GI50 (NCI/ADR-RES ovarian) was 1.18 µM and 0.536 µM and 1.95 µM. For the same compound, the TGI (NCI/ADR-RES ovarian) was 4.87 µM and 12.5 µM and 8.04 µM, the GI50 (HCT-116 colon) was 0.0011 µM and the GI50 (MDA-MB-231 breast) was 0.00138 µM. The TGI (DMS 114 small cell lung) was 0.56 µM and the TGI (DMS 273 small cell lung) was 3.13 µM.

`CC1(C)CCC[C@@]2(C)C1CCC1(C)C(CCc3ccoc3)/C(=C/OS(=O)(=O)O)CCC12` (some centres not stated) (tested in a mixture with another compound) was tested, and the TGI (OVCAR-3 ovarian) was greater than 100 µM, the TGI (M14 melanoma) was greater than 100 µM and the TGI (U251 CNS) was greater than 100 µM. The TGI (CCRF-CEM leukemia) was greater than 100 µM, the TGI (UO-31 renal) was greater than 100 µM and the TGI (SK-OV-3 ovarian) was greater than 100 µM. The TGI (HCT-116 colon) was 38.9 µM, the TGI (DMS 114 small cell lung) was greater than 100 µM and the TGI (DMS 273 small cell lung) was greater than 100 µM.

Work on `CCC(C)n1c(C)nc2c1C(=O)c1ccccc1C2=O` (configuration not stated) yielded a TGI (OVCAR-3 ovarian) greater than 100 µM, a TGI (M14 melanoma) greater than 100 µM and a TGI (U251 CNS) greater than 100 µM. For the same compound, the TGI (CCRF-CEM leukemia) was greater than 100 µM, the TGI (UO-31 renal) was greater than 100 µM and the TGI (SK-OV-3 ovarian) was greater than 100 µM. For the same compound, the TGI (HCT-116 colon) was greater than 100 µM and the TGI (DMS 273 small cell lung) was greater than 100 µM.

In the case of `Cc1ccccc1C(=O)c1c(O)c2c(c(O)c1Br)CCCC2`, the TGI (OVCAR-3 ovarian) is reported as 27.1 µM, the TGI (M14 melanoma) is reported as 29.1 µM and the TGI (U251 CNS) is reported as 31.5 µM. It also gave a TGI (UO-31 renal) of 31.7 µM, a TGI (SK-OV-3 ovarian) of 43.6 µM and a TGI (HCT-116 colon) of 30.2 µM. For the same compound, the TGI (DMS 114 small cell lung) was 27.5 µM and the TGI (DMS 273 small cell lung) was 35.4 µM.

In the case of `CCNC(C)Cc1ccccc1` (configuration not stated), the TGI (OVCAR-3 ovarian) is reported as greater than 100 µM, the TGI (M14 melanoma) is reported as greater than 100 µM and the TGI (U251 CNS) is reported as greater than 100 µM. It also gave a TGI (CCRF-CEM leukemia) greater than 100 µM, a TGI (UO-31 renal) greater than 100 µM and a TGI (SK-OV-3 ovarian) greater than 100 µM. For the same compound, the TGI (HCT-116 colon) was greater than 100 µM, the TGI (DMS 114 small cell lung) was greater than 100 µM and the TGI (DMS 273 small cell lung) was greater than 100 µM.

For `CC(=O)OC12/C(=N/O)CCCCCC1c1ccccc12` (configuration not stated), the TGI (U251 CNS) was greater than 100 µM, the TGI (CCRF-CEM leukemia) was 92.3 µM and the TGI (UO-31 renal) was greater than 100 µM. The TGI (SK-OV-3 ovarian) was greater than 100 µM, the TGI (HCT-116 colon) was greater than 100 µM and the TGI (DMS 114 small cell lung) was greater than 100 µM. For the same compound, the TGI (DMS 273 small cell lung) was greater than 100 µM.

In the case of `CCc1ccc(N=Cc2cc(OC)c(OC)c(OC)c2)cc1`, the TGI (OVCAR-3 ovarian) is reported as greater than 100 µM, the TGI (M14 melanoma) is reported as greater than 100 µM and the TGI (U251 CNS) is reported as greater than 100 µM. It also gave a TGI (CCRF-CEM leukemia) greater than 100 µM, a TGI (UO-31 renal) greater than 100 µM and a TGI (SK-OV-3 ovarian) greater than 100 µM. The TGI (HCT-116 colon) was greater than 100 µM, the TGI (DMS 114 small cell lung) was 76.1 µM and the TGI (DMS 273 small cell lung) was greater than 100 µM.

Compound `COC1=C2CC(C)CC(OC)C(O)C(C)/C=C(\C)C(OC(N)=O)C(OC)/C=C\C=C(/C)C(=O)NC(=C(C=NC(C)(C)C)C1=O)C2=O` (configuration not stated) has a TGI (OVCAR-3 ovarian) of 13.2 µM, a TGI (U251 CNS) of 21.9 µM and a TGI (CCRF-CEM leukemia) of 22.2 µM. It also gave a TGI (UO-31 renal) of 40.5 µM, a TGI (SK-OV-3 ovarian) of 67.3 µM and a TGI (NCI/ADR-RES ovarian) of 44.4 µM. For the same compound, the TGI (HCT-116 colon) was 16.2 µM, the TGI (DMS 114 small cell lung) was 3.82 µM and the TGI (DMS 273 small cell lung) was 11.9 µM.

`CN(C)CCOc1cccc2c1C(=O)c1ccccc1C2=O` showed a TGI (OVCAR-3 ovarian) of 64 µM, a TGI (M14 melanoma) of 26.3 µM and a TGI (U251 CNS) of 72.5 µM. The TGI (CCRF-CEM leukemia) was 64.9 µM, the TGI (UO-31 renal) was 45.2 µM and the TGI (SK-OV-3 ovarian) was 81.2 µM. The TGI (HCT-116 colon) was 17.2 µM, the TGI (DMS 114 small cell lung) was 22.6 µM and the TGI (DMS 273 small cell lung) was 21.7 µM.

`O=[N+]([O-])c1nc(-c2ccccn2)[nH]c1[N+](=O)[O-]` gave a TGI (OVCAR-3 ovarian) greater than 100 µM, a TGI (M14 melanoma) greater than 100 µM and a TGI (U251 CNS) greater than 100 µM. For the same compound, the TGI (CCRF-CEM leukemia) was greater than 100 µM, the TGI (UO-31 renal) was greater than 100 µM and the TGI (SK-OV-3 ovarian) was greater than 100 µM. For the same compound, the TGI (HCT-116 colon) was 49 µM, the TGI (DMS 114 small cell lung) was 38.9 µM and the TGI (DMS 273 small cell lung) was greater than 100 µM.

Work on `CCOC(=O)CN1C(=O)c2c(c(C)n(-c3ccccc3)c2C)C1=O` yielded a TGI (OVCAR-3 ovarian) greater than 100 µM, a TGI (M14 melanoma) greater than 100 µM and a TGI (U251 CNS) greater than 100 µM. The TGI (CCRF-CEM leukemia) was greater than 100 µM, the TGI (UO-31 renal) was greater than 100 µM and the TGI (SK-OV-3 ovarian) was greater than 100 µM. For the same compound, the TGI (NCI/ADR-RES ovarian) was greater than 100 µM, the TGI (HCT-116 colon) was greater than 100 µM and the TGI (MDA-MB-231 breast) was greater than 100 µM.

For `N#Cc1c(N2CCCC2)nsc1NCc1ccccc1`, the TGI (OVCAR-3 ovarian) was greater than 100 µM, the TGI (M14 melanoma) was greater than 100 µM and the TGI (U251 CNS) was greater than 100 µM. The TGI (CCRF-CEM leukemia) was greater than 100 µM, the TGI (UO-31 renal) was 65 µM and the TGI (SK-OV-3 ovarian) was greater than 100 µM. For the same compound, the TGI (NCI/ADR-RES ovarian) was greater than 100 µM, the TGI (HCT-116 colon) was greater than 100 µM and the TGI (MDA-MB-231 breast) was greater than 100 µM.

Compound `NC(=O)c1nnc2ccc(F)cc2c1N` has a TGI (OVCAR-3 ovarian) greater than 100 µM, a TGI (M14 melanoma) greater than 100 µM and a TGI (U251 CNS) greater than 100 µM. It also gave a TGI (CCRF-CEM leukemia) greater than 100 µM, a TGI (UO-31 renal) greater than 100 µM and a TGI (SK-OV-3 ovarian) greater than 100 µM. The TGI (NCI/ADR-RES ovarian) was greater than 100 µM, the TGI (HCT-116 colon) was greater than 100 µM and the TGI (MDA-MB-231 breast) was greater than 100 µM.

`Cc1ccc(-c2nc(C)c(C(=O)Nc3ccc(Cl)cc3)s2)cc1` gave a TGI (OVCAR-3 ovarian) of 98.6 µM, a TGI (M14 melanoma) greater than 100 µM and a TGI (U251 CNS) of 48.8 µM. The TGI (CCRF-CEM leukemia) was greater than 100 µM, the TGI (UO-31 renal) was 49.3 µM and the TGI (SK-OV-3 ovarian) was 45.2 µM. For the same compound, the TGI (NCI/ADR-RES ovarian) was greater than 100 µM, the TGI (HCT-116 colon) was 41.2 µM and the TGI (MDA-MB-231 breast) was 75.6 µM.

`CC(C)(C)c1cc(CC2C(=O)c3ccccc3C2=O)cc(C(C)(C)C)c1O` gave a TGI (OVCAR-3 ovarian) of 9.53 µM, a TGI (M14 melanoma) of 11.6 µM and a TGI (U251 CNS) of 13.2 µM. For the same compound, the TGI (CCRF-CEM leukemia) was 40.7 µM, the TGI (UO-31 renal) was 10.5 µM and the TGI (SK-OV-3 ovarian) was 7.71 µM. For the same compound, the TGI (NCI/ADR-RES ovarian) was greater than 100 µM, the TGI (HCT-116 colon) was 14.1 µM and the TGI (MDA-MB-231 breast) was 7.74 µM.

`CCOC(=O)c1c2c3c(cccc3[nH]c1=O)Sc1ncccc1-2` gave a TGI (OVCAR-3 ovarian) greater than 100 µM, a TGI (M14 melanoma) greater than 100 µM and a TGI (U251 CNS) of 67.3 µM. For the same compound, the TGI (CCRF-CEM leukemia) was greater than 100 µM, the TGI (UO-31 renal) was 81.5 µM and the TGI (SK-OV-3 ovarian) was greater than 100 µM. For the same compound, the TGI (NCI/ADR-RES ovarian) was greater than 100 µM, the TGI (HCT-116 colon) was greater than 100 µM and the TGI (MDA-MB-231 breast) was greater than 100 µM.

Compound `C=CCN1CCC(OC(=O)C(O)(C#CC)C2CCCC2)CC1` (configuration not stated) has a TGI (OVCAR-3 ovarian) greater than 100 µM, a TGI (M14 melanoma) greater than 100 µM and a TGI (U251 CNS) greater than 100 µM. It also gave a TGI (CCRF-CEM leukemia) greater than 100 µM, a TGI (UO-31 renal) greater than 100 µM and a TGI (SK-OV-3 ovarian) greater than 100 µM. It also gave a TGI (NCI/ADR-RES ovarian) greater than 100 µM, a TGI (HCT-116 colon) greater than 100 µM and a TGI (MDA-MB-231 breast) greater than 100 µM.

In the case of `COc1cc(C2SC(N)=Nc3c2c(C)nn3C(=O)c2ccccc2O)cc(OC)c1OC` (configuration not stated), the TGI (OVCAR-3 ovarian) is reported as greater than 10 µM, the TGI (M14 melanoma) is reported as greater than 10 µM and the TGI (U251 CNS) is reported as greater than 10 µM. For the same compound, the TGI (CCRF-CEM leukemia) was greater than 10 µM, the TGI (UO-31 renal) was greater than 10 µM and the TGI (SK-OV-3 ovarian) was greater than 10 µM. For the same compound, the TGI (NCI/ADR-RES ovarian) was greater than 10 µM, the TGI (HCT-116 colon) was greater than 10 µM and the TGI (MDA-MB-231 breast) was greater than 10 µM.
